The record followed here is patent US9796672B2, “Isoindoline compositions and methods for treating neurodegenerative disease” (Cognition Therapeutics, Inc., priority 2014, dated 2017).

One data set deals with Sigma-2 receptor. Description: Sigma-2 receptor competitive radioligand binding assay. More on the design: species or system rat. Conditions: read-out: Sigma-2 Receptor Affinity, Ki.
Data set [1] in a line: Mouse liver microsome (MLM) stability. Format: in vitro ADME. Conditions: mouse, microsomes. The method, then:
A first pharmacokinetic study was performed in microsomes of mice mouse liver microsomes, MLM) by a commercial contract research organization. The studies were performed according to Obach, R. S et al. (1997) J. Pharmacol. Exp. Ther., 283: 46-58, which is incorporated herein by reference.

The test system of data set [2] is Abeta oligomer-induced membrane trafficking deficits in primary hippocampal neurons. Description: Membrane trafficking/exocytosis (MTT) assay. Conditions: read-out: Membrane Trafficking EC50; compound dosed prior to Abeta oligomer addition.
Experimental: Primary hippocampal neurons from E18 Sprague-Dawley rat embryos were plated at optimized concentrations in 384 well plates in NB media (Invitrogen). Neurons were maintained in cultures for 3 weeks, with twice weekly feeding of NB media with N2 supplement (Invitrogen).
MTT reagent (3-(4,5-dimethylthizaol-2yl)-2,5diphenyl tetrazolium bromide) (Roche Molecular Biochemicals) was reconstituted in phosphate buffered saline to 5 mg/mL. 10 μL of MTT labeling reagent is added to each well and incubated at 37° C. for 1 h, then imaged. Exocytosis was assessed by automated microscopy and image processing to quantify the amount of endocytosed and exocytosed formazan.
Each assay plate was formatted so that compounds are tested with and without Abeta oligomer on each plate. […] Reduced formazan was first visible in intracellular vesicles. […] The dye precipitated in the aqueous environment of the culture and formed needle-shaped crystals on the surface of the neuron.
The next data set has as its system neuronal cultures. Description: Functional neuronal phenotype in neuronal cultures. The class given is cell-based. Further details: key: Antagonist: antagonists (block Abeta signaling); Agonist: agonists (block Abeta signaling with U-shaped dose-response curve and toxicity at high doses); Inactive: inactive (no effect in neuronal cultures).

SMILES strings stand for the structures. “Also recorded” adds a separate entry of the source.

Experimental for Sigma-2 receptor: Radioligand binding assays for Sigma-1 receptors and Sigma-2 receptors were carried out by a commercial contract research organization. For Sigma-1 binding, various concentrations of test compounds from 100 μM to 1 nM were used to displace 8 nM [^3H](+)pentazocine from endogenous receptors on Jurkat cell membranes (Ganapathy M E et al. 1991, J Pharmacol. Exp. Ther. 289:251-260). 10 μM Haloperidol was used to define non-specific binding. For Sigma-2 receptors various concentrations of test compounds from 100 μM to 1 nM were used to displace 5 nM [^3H] […] (Bowen W D, et al. 1993, Mol. Neuropharmcol 3:117-126). 10 μM Haloperidol was used to define non-specific binding. Reactions were terminated by rapid filtration through Whatman GF/C filters using a Brandel 12R cell harvester followed by two washes with ice-cold buffer. Radioactivity on the dried filter discs was measured using a liquid scintillation analyzer (Tri-Carb 2900TR; PerkinElmer Life and Analytical Sciences). The displacement curves were plotted and the Ki values of the test ligands for the receptor subtypes were determined using GraphPad Prism (GraphPad Software Inc., San Diego, Calif.). The percentage specific binding was determined by dividing the difference between total bound (disintegrations per minute) and nonspecific bound (disintegrations per minute) by the total bound (disintegrations per minute).
The affinity of candidate sigma-2 ligand compounds at sigma-1 and sigma-2 receptors was also determined by displacement of different known labeled sigma-2 or sigma-1 ligands. Filtration assays were conducted according the previously published procedure (Xu, et al., 2005). Test compounds were dissolved in N,N-Dimethylformamide (DMF), dimethyl sulfoxide (DMSO) or ethanol and then diluted in 50 mM Tris-HCl pH 7.4 buffer containing 150 mM NaCl and 100 mM EDTA. Membrane homogenates were made from guinea pig brain for sigma-1 binding assay and rat liver for sigma-2 binding assay. Membrane homogenates were diluted with 50 mM Tris-HCl buffer, pH 8.0 and incubated at 25° C. in a total volume of 150 uL in 96 well plates with the radioligand and test compounds with concentrations ranging from 0.1 nM to 10 uM. After incubation was completed, the reactions were terminated by the addition of 150 uL of ice-cold wash buffer (10 mM Tris HCl, 150 mM NaCl, pH 7.4) using a 96 channel transfer pipette (Fisher Scientific, Pittsburgh, Pa.) and the samples harvested and filtered rapidly through 96 well fiber glass filter plate (Millipore, Billerica, Mass.) that had been presoaked with 100 uL of 50 mM Tris-HCl buffer. Each filter was washed four times with 200 uL of ice-cold wash buffer (10 mM Tris-HCl, 150 mM NaCl, pH 7.4). A Wallac 1450 MicroBeta liquid scintillation counter (Perkin Elmer, Boston, Mass.) was used to quantitate the bound radioactivity.
Nonspecific binding was determined from samples that contained 10 uM of cold haloperidol.
The binding affinity, Ki values was calculated using the method of Cheng and Prusoff.
Experimental for neuronal cultures: Neuronal cultures are treated with various concentrations of sigma compounds for 24 hours and nuclear intensity compared to vehicle is measured.

For `CC(C)(CCc1ccc(Cl)cc1)N1Cc2cccc(C(=O)N3CCNCC3)c2C1` [compound 105], the Ki at Sigma-2 receptor was found to be 180 nM. Besides, the “Mouse liver microsomes, MLM t½” value in data set [1] was found to be 106.23 min. In addition, the EC50 in data set [2] is 2600 nM. The neuronal phenotype entry in the data set on neuronal cultures is recorded as “Neuroactive”.

`COc1cccc(CCC(C)(C)N2Cc3cccc(C(=O)N4CCNCC4)c3C2)c1` [compound 98]: the Ki at Sigma-2 receptor amounted to 10000 nM. Further, the “Mouse liver microsomes, MLM t½” value in data set [1] was determined as 29.35 min. For the same molecule, the EC50 in data set [2] came to 350 nM. In the data set on neuronal cultures, the neuronal phenotype entry is “Antagonist/; also recorded: Neuroactive”.

Regarding `COc1ccc(CCC(C)(C)N2Cc3cccc(C(=O)N4CCNCC4)c3C2)cc1` [compound 99], the inhibition constant (Ki) at Sigma-2 receptor is 1200 nM. In data set [1], the “Mouse liver microsomes, MLM t½” value is listed as 93.3 min. The half-maximal effective concentration (EC50) in data set [2] turned out to be 200 nM. Also, in the data set with neuronal cultures, the neuronal phenotype entry is given as “Antagonist/; also recorded: Neuroactive”.

Regarding `CC(C)(C#Cc1ccc2[nH]ncc2c1)N1Cc2cccc(C(=O)N3CCNCC3)c2C1` [compound 114], the 50% effective concentration (EC50) in data set [2] came to 250 nM. The neuronal phenotype entry with neuronal cultures is “Neuroactive”.

As for `COc1cc(CCC(C)(C)N2Cc3ccc(S(C)(=O)=O)cc3C2)ccc1O` [compound 77], in data set [1], the “Mouse liver microsomes, MLM t½” value is given as 142 min. Besides, in data set [2], the concentration for a half-maximal effect (EC50) came to 100 nM. In addition, the neuronal phenotype entry in the data set on neuronal cultures was “Antagonist”.

Take `COc1cccc(CCC(C)(C)n2cc3ccc(S(C)(=O)=O)cc3c2)c1` [compound 104]: the Ki at Sigma-2 receptor is 760 nM. The EC50 in data set [2] came out at 100000 nM. In addition, in the data set on neuronal cultures, the neuronal phenotype entry is reported as “Inactive”.

Consider `COc1cc(CCC(C)(C)N2Cc3cccc(N4CCNCC4)c3C2)ccc1O` [compound 107], for which the inhibitory constant (Ki) at Sigma-2 receptor was 10000 nM. Besides, the “Mouse liver microsomes, MLM t½” value in data set [1] was found to be 25.21 min. Further, the EC50 in data set [2] stood at 100000 nM. The neuronal phenotype result in the data set with neuronal cultures is “Inactive”.

`CN1CCN(C(=O)c2cccc3c2CN(C(C)(C)CCc2ccc(O)c(OC(F)(F)F)c2)C3)CC1` [compound 93]: the “Mouse liver microsomes, MLM t½” value in data set [1] stood at 5 min.

With `CC(CCc1ccc(Cl)c(Cl)c1)N1Cc2ccc3ccccc3c2C1` (stereo not drawn) [compound 19], the neuronal phenotype entry in the data set with neuronal cultures was “Antagonist”.

In the case of `CC(C)(CCc1ccc(O)c(OC(F)(F)F)c1)N1Cc2cccc(C(=O)N3CCOCC3)c2C1` [compound 94], the “Mouse liver microsomes, MLM t½” value in data set [1] is reported as 14 min.

As for `COc1cc(CCC(C)(C)N2Cc3ccc(N4CCNCC4)cc3C2)ccc1O` [compound 111], the inhibitory constant (Ki) on Sigma-2 receptor came to 740 nM. In data set [1], the “Mouse liver microsomes, MLM t½” value was found to be 27.01 min. Besides, the EC50 in data set [2] amounted to 100000 nM. In the data set on neuronal cultures, the neuronal phenotype result is given as “Inactive”.

Regarding `COc1ccc(CCC(C)(C)N2Cc3cccc(C(=O)N4CCNCC4)c3C2)cc1Cl` [compound 118], the EC50 in data set [2] stood at 100000 nM. For the same molecule, the neuronal phenotype result with neuronal cultures is reported as “Inactive”.

With `CC(C)COc1cc(CCC(C)(C)N2Cc3cccc(C(=O)N4CCN(C)CC4)c3C2)ccc1O` [compound 91], in data set [1], the “Mouse liver microsomes, MLM t½” value turned out to be 6 min.

`CC(=O)N1CCN(C(=O)c2cccc3c2CN(C(C)(C)CCc2ccc(O)c(OCC(C)C)c2)C3)CC1` [compound 92]: the “Mouse liver microsomes, MLM t½” value in data set [1] is recorded as 7 min.

As to `COc1cc(CC[C@@H](C)N2Cc3ccc(C(F)(F)F)cc3C2)ccc1O` [compound 2], the “Mouse liver microsomes, MLM t½” value in data set [1] is recorded as 28 min. For the same molecule, in data set [2], the EC50 was in the range of 6700 to 7700 nM. In addition, the neuronal phenotype result in the data set with neuronal cultures was “Antagonist”.

For the molecule `CC(C)(C)Oc1cc(CCC(C)(C)n2cc3ccc(S(C)(=O)=O)cc3c2)ccc1O` [compound 95], the inhibition constant (Ki) at Sigma-2 receptor worked out at 100 nM. Further, the EC50 in data set [2] worked out at 1700 nM. The neuronal phenotype result in the data set with neuronal cultures is “Antagonist”.

As for `C[C@H](CCc1ccc(Cl)c(Cl)c1)N1Cc2cccc(Cl)c2C1.Cl` [compound 16], in data set [1], the “Mouse liver microsomes, MLM t½” value is given as 12 min. For the same molecule, the 50% effective concentration (EC50) in data set [2] was > 20000 nM. Also, the neuronal phenotype entry with neuronal cultures is “Inactive”.

In the case of `CC(C)COc1cc(CCC(C)(C)N2Cc3cccc(C(=O)N4CCOCC4)c3C2)ccc1O` [compound 90], the “Mouse liver microsomes, MLM t½” value in data set [1] is listed as 9 min.

In the case of `COc1ccc2c(c1)CN([C@H](C)CCc1ccc(Cl)c(Cl)c1)C2.Cl` [compound 15], the “Mouse liver microsomes, MLM t½” value in data set [1] stood at 15 min. For the same molecule, the EC50 in data set [2] came to 500 nM. In the data set on neuronal cultures, the neuronal phenotype result is on record as “Inactive”.

Turning to `COc1cccc(CCC(C)(C)N2Cc3ccc(S(C)(=O)=O)cc3C2)c1` [compound 103], on Sigma-2 receptor, the Ki came out at 1.4 nM. Moreover, the “Mouse liver microsomes, MLM t½” value in data set [1] was determined as 15.2 min. Also, in data set [2], the half-maximal effective concentration (EC50) is 100000 nM. In the data set with neuronal cultures, the neuronal phenotype result is given as “Inactive”.

As to `CC(C)COc1cc(CCC(C)(C)N2Cc3cccc(C(=O)N(C)C)c3C2)ccc1O` [compound 89], the “Mouse liver microsomes, MLM t½” value in data set [1] is 17 min.

In the case of `CC(C)(CCc1ccc(O)c(Cl)c1)N1Cc2cccc(F)c2C1` [compound 117], the EC50 in data set [2] worked out at 1200 nM. Moreover, the neuronal phenotype result in the data set with neuronal cultures is “Antagonist”.

As to `COc1cc(CCC(C)(C)N2Cc3cccc(F)c3C2)ccc1Cl` [compound 112], in data set [2], the EC50 amounted to 260 nM. For the same molecule, the neuronal phenotype result in the data set on neuronal cultures is reported as “Antagonist”.

For `COc1ccc(CCC(C)(C)N2Cc3ccc(S(C)(=O)=O)cc3C2)cc1` [compound 102], the inhibition constant (Ki) on Sigma-2 receptor was found to be 1.8 nM. Also, the “Mouse liver microsomes, MLM t½” value in data set [1] is 20.35 min. In data set [2], the EC50 was 100000 nM. Besides, in the data set with neuronal cultures, the neuronal phenotype entry is listed as “Inactive”.

Turning to `COc1ccc(CCC(C)(C)N2Cc3cccc(C(=O)N4CCNCC4)c3C2)cc1OC` [compound 100], the Ki on Sigma-2 receptor was 10000 nM. The “Mouse liver microsomes, MLM t½” value in data set [1] is listed as 156.24 min. In addition, in data set [2], the EC50 was 1100 nM. Further, the neuronal phenotype result in the data set with neuronal cultures is on record as “Antagonist”.

As for `CC(C)(CCc1ccc(Cl)c(Cl)c1)N1Cc2cccc(N3CCNCC3)c2C1` [compound 109], at Sigma-2 receptor, the Ki was 31 nM. The “Mouse liver microsomes, MLM t½” value in data set [1] worked out at 253.79 min. The 50% effective concentration (EC50) in data set [2] turned out to be 100000 nM. In addition, the neuronal phenotype result in the data set on neuronal cultures was “Agonist”.

Regarding `C[C@H](CCc1ccc(O)c(OC(C)(C)C)c1)N1Cc2cccc(F)c2C1` [60B], the “Mouse liver microsomes, MLM t½” value in data set [1] was determined as 8 min. In addition, the EC50 in data set [2] stood at 1600 nM. For the same molecule, the neuronal phenotype result in the data set with neuronal cultures is recorded as “Antagonist”.

In the case of `COc1cc(CCC(C)N2Cc3ccc4ccccc4c3C2)ccc1O.Cl` (stereo not drawn) [compound 17], in data set [1], the “Mouse liver microsomes, MLM t½” value stood at 10 min. For the same molecule, the EC50 in data set [2] stood at 300 nM. The neuronal phenotype entry in the data set on neuronal cultures is listed as “Antagonist”.

Take `CC(C)(CCc1ccc(O)c(Cl)c1)N1Cc2ccc(S(C)(=O)=O)cc2C1` [compound 116]: in data set [2], the EC50 came out at 100000 nM. Also, the neuronal phenotype entry in the data set with neuronal cultures was “Inactive”.

Consider `CC(C)(CCc1ccc2[nH]ncc2c1)N1Cc2cccc(C(=O)N3CCNCC3)c2C1` [compound 115], for which the EC50 in data set [2] came out at 100000 nM. Moreover, in the data set on neuronal cultures, the neuronal phenotype result is recorded as “Inactive”.

As to `CC(C)(CCc1ccc(F)cc1)N1Cc2cccc(F)c2C1` [compound 33], the “Mouse liver microsomes, MLM t½” value in data set [1] is 9 min. The EC50 in data set [2] was 3300 nM. Besides, the neuronal phenotype result in the data set with neuronal cultures is given as “Antagonist”.

`C[C@H](CCc1ccc(Cl)c(Cl)c1)N1Cc2ccc(F)cc2C1.Cl` [compound 12]: the “Mouse liver microsomes, MLM t½” value in data set [1] came to 13 min. Also, the EC50 in data set [2] amounted to 400 nM. For the same molecule, the neuronal phenotype result with neuronal cultures is listed as “Antagonist”.

For the molecule `COc1cc(CCC(C)(C)N2Cc3ccc(S(C)(=O)=O)cc3C2)ccc1Cl` [compound 113], the EC50 in data set [2] was found to be 5300 nM. Also, the neuronal phenotype result in the data set with neuronal cultures is “Antagonist”.
